Results published in PMC10317887, “Hypoglycaemia frequency and physiological response after double or triple doses of once-weekly insulin icodec vs once-daily insulin glargine U100 in type 2 diabetes: a randomised crossover trial” (Diabetologia, 2023).
Read-outs that look alike come from different tables or passages of the source.

Legend:
type 1 diabetes = settings: cited from earlier work
Description: In addition, the low insulin receptor binding affinity of icodec contributes to its long half-life by reducing the clearance rate, as insulin is mainly cleared by internalisation following binding to and activation of the insulin receptor [9, 10]. In case of excess amounts of icodec throughout the body, e.g ...

[1] = system: individuals with type 2 diabetes; assay type: in vivo, human; settings: for Mean PGnadir, estimated geometric mean: all participants; for Time to recovery from PGnadir to PG5.5 mmol/l, estimated geometric mean: constant i.v. glucose 5.5 mg kg^−1 min^−1; for Time to recovery from PGnadir to PG5.5 mmol/l, estimated geometric mean / Glucose needed from PGnadir to PG5.5 mmol/l, estimated geometric mean: individuals with PG <3.3 mmol/l at initiation of recovery; for Time to decline from PG5.5 mmol/l to PG3.9 mmol/l, estimated geometric mean: individuals with PG decline to <3.0 mmol/l and/or hypoglycaemia symptoms; for Time to decline from PG5.5 mmol/l to PG3.0 mmol/l, estimated geometric mean: individuals with PG decline to <3.0 mmol/l; for Mean PGnadir in the subgroup analysis: subgroup PGnadir <3.0 mmol/l and/or symptoms
Protocol: During the two treatment periods, participants received once-weekly icodec for 6 weeks or once-daily glargine U100 for 11 days in randomised order. […] Treatment periods were separated by 35–49 days of washout following icodec and 4–11 days of washout following glargine U100. Icodec (4200 nmol/ml; Novo Nordisk, Bagsværd, Denmark) was administered s.c. in the left thigh at 20:00 hours by qualified site staff using a NovoPen 4 pen injector (Novo Nordisk). […] At the start of week 1, a one-time additional 100% icodec dose was administered to accelerate time to steady state, followed by a normal dose at week 2, a double dose at week 3 (prior to hypoglycaemia induction), no dose at week 4 (due to the double dose given the week before), a normal dose at week 5, and a triple dose at week 6 (prior to hypoglycaemia induction). Insulin glargine U100 (100 U/ml [600 nmol/ml]; Sanofi, Paris, France) was administered s.c. in the right thigh at 09:00 hours by qualified site staff using a SoloStar pen injector (Sanofi). A normal dose of once-daily glargine U100 was established during run in. Glargine U100 was administered at a normal dose for 3 days followed by a double dose on day 4 (prior to hypoglycaemia induction), no dose on day 5 (due to the double dose given the day before), then a normal dose for 5 days, and a triple dose on day 11 (prior to hypoglycaemia induction).
Hypoglycaemia induction was carried out during weeks 3 (double dose) and 6 (triple dose) for icodec and on days 4 (double dose) and 11 (triple dose) for glargine U100 while at steady state. To initiate hypoglycaemia induction, participants should not have experienced hypoglycaemia (PG <3.9 mmol/l) within 24 h or have any relevant medical condition that could confound the outcomes or pose unacceptable risk to the participant. Hypoglycaemia induction (Fig. 1b) was initiated at 16:00 hours 2 days after double/triple icodec dosing (44 h post dose) and on the day of double/triple glargine U100 dosing (7 h post dose). These timings were selected since they approximated the expected time of maximum glucose-lowering effect for both insulin products based on pharmacokinetic/pharmacodynamic modelling performed prior to the trial. For 7.5 h prior to hypoglycaemia induction, PG was kept at 5.5 mmol/l by variable i.v. infusion of glucose (20% wt/vol) or human soluble insulin (100 U/ml in 99.6 ml saline [154 mmol/l NaCl]). PG was measured by a Super GL2 Glucose Analyzer (Dr. Müller Gerätebau, Freital, Germany). Insulin infusion was terminated 60 min prior to hypoglycaemia induction at the latest. PG was maintained at 5.5 mmol/l±20% from 60 min to 30 min prior to hypoglycaemia induction and at 5.5 mmol/l±10% during the last 30 min prior to hypoglycaemia induction. Hypoglycaemia induction was initiated by terminating glucose infusion, thereby allowing PG to decline towards the minimum (nadir) PG target level of no less than 2.5 mmol/l. The handling of alternative scenarios, e.g. PGnadir >2.5 mmol/l, slow PG decline towards hypoglycaemia or slow recovery from hypoglycaemia, is described in electronic supplementary material (ESM) Methods. The investigator recorded if the PGnadir was <3.0 mmol/l or ≥3.0 mmol/l with hypoglycaemic symptoms. The PGnadir level was maintained for 15 min by variable i.v. glucose as needed. Subsequently, euglycaemia was restored by constant i.v. glucose (5.5 mg kg^−1 min^−1) until PG was 5.5 mmol/l, which was maintained until the next morning (between 07:00 hours and 09:00 hours) by variable i.v. glucose. During hypoglycaemia induction, participants remained fasted (except for water ad libitum) and stayed in a supine or semi-supine position (except when cognitive tests were performed). Participants stayed at the clinical site for at least 12 h following each hypoglycaemia induction experiment. […]

[2] = system: individuals with type 2 diabetes; assay: Hypoglycaemia awareness question 'Do you feel hypo?' during hypoglycaemia induction; assay type: in vivo, human; settings: subgroup
Protocol: Hypoglycaemia awareness was determined by asking the question, ‘Do you feel hypo?’, to the participant.

glucagon = assay: Counterregulatory hormone response: plasma glucagon (ELISA); assay type: in vivo, human; settings: plasma, subgroup
Protocol: (§1) Plasma concentrations of glucagon were measured by an enzyme-linked immunosorbent assay (Mercodia AB, Uppsala, Sweden). Plasma concentrations of adrenaline (epinephrine) and noradrenaline (norepinephrine) were measured by liquid chromatography-mass spectrometry (Thermo Fisher Scientific, Dreieich, Germany). Serum concentrations of cortisol and growth hormone were measured by electrochemiluminescent immunoassays (Roche Diagnostics, Mannheim, Germany).

adrenaline (epinephrine) = assay: Counterregulatory hormone response: plasma adrenaline (LC-MS); assay type: in vivo, human; settings: plasma, subgroup
Protocol: as §1

[3] = system: noradrenaline (norepinephrine); assay: Counterregulatory hormone response: plasma noradrenaline (LC-MS); assay type: in vivo, human; settings: plasma, subgroup
Protocol: as §1

cortisol = assay: Counterregulatory hormone response: serum cortisol (electrochemiluminescent immunoassay); assay type: in vivo, human; settings: serum, subgroup; for Cortisol at PGnadir, estimated geometric mean: n=19 icodec
Protocol: as §1

growth hormone = assay: Counterregulatory hormone response: serum growth hormone (electrochemiluminescent immunoassay); assay type: in vivo, human; settings: serum, subgroup; for Growth hormone at PGnadir, estimated geometric mean: n=19 icodec
Protocol: as §1

[4] = system: individuals with type 2 diabetes; settings: in vivo
Description: Safety assessments during the trial included adverse events (AEs), hypoglycaemic episodes (other than those induced), vital signs (other than those assessed during hypoglycaemia induction), electrocardiograms, physical examinations and clinical laboratory assessments (haematology, biochemistry and urinalysis).
AEs and hypoglycaemic episodes (other than those induced) during the treatment periods were summarised. The end of each treatment period was defined as 7 days after the last icodec dose and 2 days after the last glargine U100 dose. […] Hypoglycaemic episodes were classified as level 1 (PG <3.9 mmol/l and ≥3.0 mmol/l), level 2 (PG <3.0 mmol/l) and level 3 (severe cognitive impairment requiring assistance for recovery) [20].

[5] = double dose, n=15 icodec, 13 glargine U100
[6] = double dose, n=20 icodec, 19 glargine U100
[7] = double dose, n=17 icodec, 15 glargine U100
[8] = triple dose, n=18 icodec, 22 glargine U100
[9] = triple dose, n=20 icodec, 29 glargine U100
[10] = triple dose, n=20 icodec, 28 glargine U100

**Q.** For insulin degludec, which “Participants with clinically significant hypoglycaemia” value (type 1 diabetes; type 1 diabetes, triple doses, ref [8], [24]) is on record?
**A.** The value was “almost all participants”.

**Q.** For insulin detemir, which “Participants with clinically significant hypoglycaemia” value (type 1 diabetes; in vivo) is on record?
**A.** The value was 78%.

**Q.** With insulin glargine U100 as the substance, how does the “Time to full recovery from hypoglycaemia” value ([1]; constant i.v. glucose infusion at 5.5 mg kg^−1 min^−1, double and triple doses) read?
**A.** The value was at most 30 min.

**Q.** What about the “Mean PGnadir, estimated geometric mean” value ([1]; double dose, n=43 icodec, 42 glargine U100) of the same substance?
**A.** The value was 3.3 mmol/L.

**Q.** What about the “Time to recovery from PGnadir to PG5.5 mmol/l, estimated geometric mean” value [1, 5] of the same substance?
**A.** The value was 21.0 min.

**Q.** What about the “Glucose needed from PGnadir to PG5.5 mmol/l, estimated geometric mean” value [1, 5] of the same substance?
**A.** Its value is 111 mg/kg.

**Q.** What about the “Time to decline from PG5.5 mmol/l to PG3.9 mmol/l, estimated geometric mean” value [1, 6] of the same substance?
**A.** Its value is 1.1 h.

**Q.** And the “Time to decline from PG5.5 mmol/l to PG3.0 mmol/l, estimated geometric mean” value [1, 7]?
**A.** The value was 4.5 h.

**Q.** What about the “Mean PGnadir in the subgroup analysis” value ([1]; double dose) of the same substance?
**A.** Its value is 2.9 mmol/L.

**Q.** And the “Mean PGnadir, estimated geometric mean” value ([1]; triple dose, n=38 icodec, 40 glargine U100)?
**A.** Its value is 2.9 mmol/L.

**Q.** And the “Time to recovery from PGnadir to PG5.5 mmol/l, estimated geometric mean” value [1, 8]?
**A.** Its value is 23.3 min.

**Q.** What about the “Glucose needed from PGnadir to PG5.5 mmol/l, estimated geometric mean” value [1, 8] of the same substance?
**A.** Its value is 115 mg/kg.

**Q.** And the “Time to decline from PG5.5 mmol/l to PG3.9 mmol/l, estimated geometric mean” value [1, 9]?
**A.** The value was 0.7 h.

**Q.** What about the “Time to decline from PG5.5 mmol/l to PG3.0 mmol/l, estimated geometric mean” value [1, 10] of the same substance?
**A.** The value was 2.2 h.

**Q.** What about the “Mean PGnadir in the subgroup analysis” value ([1]; triple dose) of the same substance?
**A.** The value was 2.7 mmol/L.

**Q.** And the “Proportion of individuals answering 'Yes' to 'Do you feel hypo?'” value (from here on “Proportion”) ([2]; double dose, at PG3.0 mmol/l, n=9/17 icodec, 2/15 glargine U100)?
**A.** The value was 13.3%.

**Q.** And the “Proportion” value ([2]; double dose, at PGnadir, n=14/20 icodec, 10/19 glargine U100)?
**A.** The value was 52.6%.

**Q.** And the “Proportion” value ([2]; triple dose, at PG3.0 mmol/l, n=5/20 icodec, 8/28 glargine U100)?
**A.** The value was 28.6%.

**Q.** What about the “Proportion” value ([2]; triple dose, at PGnadir, n=9/20 icodec, 15/29 glargine U100) of the same substance?
**A.** The value was 51.7%.

**Q.** What about the “Glucagon at PG3.0 mmol/l, estimated geometric mean” value (glucagon; [7]) of the same substance?
**A.** Its value is 47.7 ng/L.

**Q.** And the “Glucagon at PGnadir, estimated geometric mean” value (glucagon; double dose, n=19 icodec, 19 glargine U100)?
**A.** The value was 53.1 ng/L.

**Q.** And the “Glucagon at PG3.0 mmol/l, estimated geometric mean” value (glucagon; [10])?
**A.** Its value is 51.6 ng/L.

**Q.** What about the “Glucagon at PGnadir, estimated geometric mean” value (glucagon; [9]) of the same substance?
**A.** The value was 59.1 ng/L.

**Q.** And the “Adrenaline at PG3.0 mmol/l, estimated geometric mean” value (adrenaline (epinephrine); [7])?
**A.** The value was 528.3 pmol/L.

**Q.** What about the “Adrenaline at PGnadir, estimated geometric mean” value (adrenaline (epinephrine); [6]) of the same substance?
**A.** Its value is 590.9 pmol/L.

**Q.** What about the “Adrenaline at PG3.0 mmol/l, estimated geometric mean” value (adrenaline (epinephrine); [10]) of the same substance?
**A.** Its value is 312.2 pmol/L.

**Q.** And the “Adrenaline at PGnadir, estimated geometric mean” value (adrenaline (epinephrine); [9])?
**A.** Its value is 570.9 pmol/L.

**Q.** What about the “Noradrenaline at PG3.0 mmol/l, estimated geometric mean” value [3, 7] of the same substance?
**A.** Its value is 853.0 pmol/L.

**Q.** What about the “Noradrenaline at PGnadir, estimated geometric mean” value [3, 6] of the same substance?
**A.** Its value is 907.4 pmol/L.

**Q.** And the “Noradrenaline at PG3.0 mmol/l, estimated geometric mean” value [3, 10]?
**A.** The value was 843.0 pmol/L.

**Q.** What about the “Noradrenaline at PGnadir, estimated geometric mean” value [3, 9] of the same substance?
**A.** Its value is 890.5 pmol/L.

**Q.** What about the “Cortisol at PG3.0 mmol/l, estimated geometric mean” value (cortisol; [7]) of the same substance?
**A.** Its value is 153.8 nmol/L.

**Q.** And the “Cortisol at PGnadir, estimated geometric mean” value (cortisol; double dose, 19 glargine U100)?
**A.** Its value is 300.3 nmol/L.

**Q.** What about the “Cortisol at PGnadir, estimated geometric mean” value (cortisol; triple dose, 29 glargine U100) of the same substance?
**A.** The value was 197.6 nmol/L.

**Q.** What about the “Cortisol at PG3.0 mmol/l, estimated geometric mean” value (cortisol; [10]) of the same substance?
**A.** The value was 122.9 nmol/L.

**Q.** What about the “Growth hormone at PG3.0 mmol/l, estimated geometric mean” value (growth hormone; [7]) of the same substance?
**A.** Its value is 4.1 µg/L.

**Q.** And the “Growth hormone at PGnadir, estimated geometric mean” value (growth hormone; double dose, 19 glargine U100)?
**A.** Its value is 3.5 µg/L.

**Q.** And the “Growth hormone at PGnadir, estimated geometric mean” value (growth hormone; triple dose, 29 glargine U100)?
**A.** Its value is 3.5 µg/L.

**Q.** What about the “Growth hormone at PG3.0 mmol/l, estimated geometric mean” value (growth hormone; [10]) of the same substance?
**A.** The value was 2.4 µg/L.

**Q.** What about the AE rate [4] of the same substance?
**A.** Its AE rate is 21.3 AEs per participant-year of exposure.

**Q.** And the “Duration of level 2 hypoglycaemic episodes, mean±SD” value [4]?
**A.** Its value is 37.7 ± 15.0 min.

**Q.** And the “Number of AEs reported” value [4]?
**A.** The value was 33 AEs.

**Q.** What about the “Rate of clinically significant hypoglycaemic episodes (level 2, PG <3.0 mmol/l)” value [4] of the same substance?
**A.** Its value is 3.0 episodes per participant-year of exposure.

**Q.** What about the “Severe hypoglycaemic episodes (level 3)” value [4] of the same substance?
**A.** Its value is “no severe hypoglycaemic episodes”.

**Q.** And the “Participants with clinically significant hypoglycaemia” value (type 1 diabetes; in vivo)?
**A.** The value was “almost all participants”.

**Q.** Which “Participants with clinically significant hypoglycaemia” value (type 1 diabetes; in vivo) does the source give for neutral protamine Hagedorn insulin here?
**A.** Its value is 78%.
